For data set [1] the following is noted: rat, in vivo; cited from earlier work.
Data set [2] can be described thus: Solubility of MIV-150 in ring polymer. Type of data set: physicochemical.

Molecules are shown by their SMILES. Where only a bound is given, the exact number is not on record here.

For `CCC(=O)c1ccc(F)c([C@@H]2C[C@@H]2NC(=O)Nc2ccc(C#N)cn2)c1O` [MIV-150], the “Time within which absorbed MIV-150 is cleared” value in data set [1] is not above 12 h. In addition, the “Solubility of MIV-150 in EVA-40” value in data set [2] (DSC) is reported as “partially soluble”. Further, the “Solubility of MIV-150 in silicone” value in data set [2] (DSC of formulated ring segments and release studies with micronized MIV-150) is “insoluble”.

Source of the values: publication PMC4391747 (Science translational medicine, 2012).
